According to patent US5739171A, “Method for promoting animal growth” (priority 1993, dated 1998):
Like-named read-outs stand apart in the source and are kept apart here.

What was measured:
Tilapia fry = format: in vivo; details: feed with 10 ppm of a single salt; for Body Weight Increase per 1 Tilapia after 4 Weeks: control 3.78; for Body Weight Increase per 1 Tilapia after 8 Weeks: control 10.10
Procedure: Tilapia fry with average body weight 2 g were used. Commercial feed for tilapia was given twice a day (morning and evening) in an amount of 5 to 8% of the body weight. The control group was given the commercial feed only, while the treated groups were given the commercial feed with the addition of the test compound(s) o-nitrophenol, p-nitrophenol and/or 5-nitroguaiacol, in the amount(s) shown in Table 3. Body weights were measured after 4 and 8 weeks.

[1] = acute toxicity by oral administration (LD50), rats; details: rat, in vivo
Description: Safety of the effective components of the composition of the present invention will be given hereunder. For example, acute toxicity by oral administration of sodium o-nitrophenol, sodium p-nitrophenol and sodium 5-nitroguaiacol is as follows:
Acute toxicity by oral administration is low. In addition, it has been also confirmed that those compounds are without problem in terms of toxicity by chronic toxicity test, teratogenic test and carcinogenic test. Further, as mentioned above, those compounds have been used as plant growth regulators and hair growth promoters throughout the world. In the past, they were used as injections but there was no example of adverse affection on the animals who took the plants to which they were applied, on the persons who were injected therewith and on the persons using the hair growth promoters containing them. Thus, their safety in humans has been practically confirmed. As mentioned above, o-nitrophenol, p-nitrophenol, 5-nitroguaiacol and salts thereof which are active ingredient(s) of the methods for growth promoting of the present invention have high safety.

[2] = female rats, read-out: LD50 for rats (female)
[3] = male rats, read-out: LD50 for rats (male)

SMILES: COc1ccc([N+](=O)[O-])cc1O [Sodium 5-nitroguaiacol, sodium 5-nitroguaiacol]
- Body Weight Increase per 1 Tilapia after 4 Weeks (Tilapia fry): 4.08 g
- Body Weight Increase per 1 Tilapia after 4 Weeks, relative to control (100) (Tilapia fry): 108
- Body Weight Increase per 1 Tilapia after 8 Weeks (Tilapia fry): 11.09 g
- Body Weight Increase per 1 Tilapia after 8 Weeks, relative to control (100) (Tilapia fry): 110
- LD50 [1, 2]: 1270 mg/kg
- LD50 [1, 3]: 3100 mg/kg

SMILES: O=[N+]([O-])c1ccccc1O.[Na] [Sodium o-nitrophenol, sodium o-nitrophenol]
- Body Weight Increase per 1 Tilapia after 4 Weeks (Tilapia fry): 3.97 g
- Body Weight Increase per 1 Tilapia after 4 Weeks, relative to control (100) (Tilapia fry): 105
- Body Weight Increase per 1 Tilapia after 8 Weeks (Tilapia fry): 10.71 g
- Body Weight Increase per 1 Tilapia after 8 Weeks, relative to control (100) (Tilapia fry): 106
- LD50 [1, 2]: 1460 mg/kg
- LD50 [1, 3]: 2050 mg/kg

SMILES: O=[N+]([O-])c1ccc(O)cc1.[Na] [Sodium p-nitrophenol, sodium p-nitrophenol]
- Body Weight Increase per 1 Tilapia after 4 Weeks (Tilapia fry): 4.04 g
- Body Weight Increase per 1 Tilapia after 4 Weeks, relative to control (100) (Tilapia fry): 107
- Body Weight Increase per 1 Tilapia after 8 Weeks (Tilapia fry): 10.61 g
- Body Weight Increase per 1 Tilapia after 8 Weeks, relative to control (100) (Tilapia fry): 105
- LD50 [1, 2]: 482 mg/kg
- LD50 [1, 3]: 1250 mg/kg
